Columns and labels:
Assay type in all cases: cell-based
Giberella fujikuroi = assay: Plate medium fungicidal assay, rice bakanae disease G.f (Experimental Example 5); settings: for inhibition at 5 µg/mL / inhibition at 50 µg/mL: read-out: growth inhibition grade G.f
Experimental: (§1) In this Experimental Example, the fungicidal effects of the inventive compounds on various phytopathogenic fungi for plants and hazardous microorganism for industrial materials were examined by the methods described below. Each inventive compound was dissolved in 2 ml of dimethyl sulfoxide. 0.6 ml of this solution was added to 60 nil of a PDA medium (potato dextrose agar medium) at about 60 degrees C., which was mixed thoroughly in a 100-ml conical flask, and poured into a dish, where it was solidified, thereby obtaining a plate medium containing the inventive compound at 50 mg/L and 5 mg/L. On the other hand, a subject microorganism previously cultured on a plate medium was cut out using a cork borer whose diameter was 4 mm, and inoculated to the test compound-containing plate medium described above. […] The growth degree of the microorganism on the test compound-containing plate medium thus observed was compared with the growth degree of the microorganism in the untreated group, and % mycelial growth inhibition was calculated by the following equation. R=100(dc−dt)/dc wherein R=% mycelial extension inhibition, dc=flora diameter in untreated plate, dt=flora diameter in treated plate. The results obtained as described above were evaluated as one of the 5 grades according to the following criteria. […] Rice bakanae disease (Giberella fujikuroi) G.f

Botritis cinerea = assay: Plate medium fungicidal assay, gray mold B.c (Experimental Example 5); settings: for inhibition at 5 µg/mL / inhibition at 50 µg/mL: read-out: growth inhibition grade B.c
Experimental: as §1, with “Gray mold (Botritis cinerea) B.c” for “Rice bakanae disease (Giberella fujikuroi) G.f”

Pyricularia oryzae = assay: microbe, parasite or virus in culture; settings: for inhibition at 5 µg/mL / inhibition at 50 µg/mL: Pyricularia oryzae, read-out: growth inhibition grade P.o
Fusarium graminearum = assay: microbe, parasite or virus in culture; settings: for inhibition at 5 µg/mL / inhibition at 50 µg/mL: Fusarium graminearum, read-out: growth inhibition grade F.g
[1] = tested on: Pseudocercoporella herpotrichoides; assay: Plate medium fungicidal assay, wheat eye spot P.h (Experimental Example 5); settings: for inhibition at 5 µg/mL / inhibition at 50 µg/mL: read-out: growth inhibition grade P.h
Experimental: as §1, with “Wheat eye spot (Pseudocercoporella herpotrichoides) P.h” for “Rice bakanae disease (Giberella fujikuroi) G.f”

Rhynchosporium secalis = assay: Plate medium fungicidal assay, barley leaf blotch R.sec (Experimental Example 5); settings: for inhibition at 5 µg/mL / inhibition at 50 µg/mL: Rhynchosporium secalis, read-out: growth inhibition grade R.sec
Experimental: as §1, with “Barley leaf blotch (Rhynchosporium secalis) R.sec” for “Rice bakanae disease (Giberella fujikuroi) G.f”

Sclerotinia sclerotiorum = assay: Plate medium fungicidal assay, Sclerotinia rot S.s (Experimental Example 5); settings: for inhibition at 5 µg/mL / inhibition at 50 µg/mL: Sclerotinia sclerotiorum, read-out: growth inhibition grade S.s
Experimental: as §1, with “Sclerotinia rot (Sclerotinia sclerotiorum) S.s” for “Rice bakanae disease (Giberella fujikuroi) G.f”

[2] = plate medium containing compound at 5 mg/L
[3] = plate medium containing compound at 50 mg/L

Structure (SMILES) | inhibition at 5 µg/mL (Giberella fujikuroi; plate medium, 5 mg/L) [%] | inhibition at 50 µg/mL (Giberella fujikuroi; plate medium, 50 mg/L) [%] | inhibition at 5 µg/mL (Botritis cinerea; plate medium, 5 mg/L) [%] | inhibition at 50 µg/mL (Botritis cinerea; plate medium, 50 mg/L) [%] | inhibition at 5 µg/mL (Pyricularia oryzae) [%] | inhibition at 50 µg/mL (Pyricularia oryzae) [%] | inhibition at 5 µg/mL (Fusarium graminearum) [%] | inhibition at 50 µg/mL (Fusarium graminearum) [%] | inhibition at 5 µg/mL ([1]; plate medium, 5 mg/L) [%] | inhibition at 50 µg/mL ([1]; plate medium, 50 mg/L) [%] | inhibition at 5 µg/mL (Rhynchosporium secalis; plate medium, 5 mg/L) [%] | inhibition at 50 µg/mL (Rhynchosporium secalis; plate medium, 50 mg/L) [%] | inhibition at 5 µg/mL (Sclerotinia sclerotiorum; plate medium, 5 mg/L) [%] | inhibition at 50 µg/mL (Sclerotinia sclerotiorum; plate medium, 50 mg/L) [%] | other results
Cc1ccc(C[C@@H]2CC[C@](C)(CCl)[C@@]2(O)Cn2cncn2)cc1 (relative stereo) [Compound I-80] |  |  |  |  |  |  |  |  |  |  |  |  |  |  | Growth inhibition grade, G.f (Giberella fujikuroi; [2]): 5 (% Mycerial growth inhibition of 80% or higher); Growth inhibition grade, G.f (Giberella fujikuroi; [3]): 5 (% Mycerial growth inhibition of 80% or higher); Growth inhibition grade, B.c (Botritis cinerea; [2]): 5 (% Mycerial growth inhibition of 80% or higher); Growth inhibition grade, B.c (Botritis cinerea; [3]): 5 (% Mycerial growth inhibition of 80% or higher); Growth inhibition grade, P.o (Pyricularia oryzae; [2]): 5 (% Mycerial growth inhibition of 80% or higher); Growth inhibition grade, P.o (Pyricularia oryzae; [3]): 5 (% Mycerial growth inhibition of 80% or higher); Growth inhibition grade, F.g (Fusarium graminearum; [2]): 5 (% Mycerial growth inhibition of 80% or higher); Growth inhibition grade, F.g (Fusarium graminearum; [3]): 5 (% Mycerial growth inhibition of 80% or higher); Growth inhibition grade, P.h [1, 2]: 5 (% Mycerial growth inhibition of 80% or higher); Growth inhibition grade, P.h [1, 3]: 5 (% Mycerial growth inhibition of 80% or higher); Growth inhibition grade, R.sec (Rhynchosporium secalis; [2]): 5 (% Mycerial growth inhibition of 80% or higher); Growth inhibition grade, R.sec (Rhynchosporium secalis; [3]): 5 (% Mycerial growth inhibition of 80% or higher); Growth inhibition grade, S.s (Sclerotinia sclerotiorum; [2]): 5 (% Mycerial growth inhibition of 80% or higher); Growth inhibition grade, S.s (Sclerotinia sclerotiorum; [3]): 5 (% Mycerial growth inhibition of 80% or higher)
C[C@@]1(CCl)CC[C@H](Cc2ccc(Cl)cc2)[C@]1(O)Cn1cncn1 (racemic) [Compound I-401, (1RS,2RS,5RS)-5-(4-chlorobenzyl)-2-chloromethyl-2-methyl-1-[1,2,4]triazol-1-ylmethylcyclopentanol] | > 80 | > 80 | > 80 | > 80 | > 80 | > 80 | > 80 | > 80 | > 80 | > 80 | > 80 | > 80 | > 80 | > 80 | 
C[C@]1(CBr)CC[C@@H](Cc2ccc(F)cc2)[C@]1(O)Cn1cncn1 (racemic) [Compound I-601, (1RS,2SR,5SR)-2-bromomethyl-5-(4-fluorobenzyl)-2-methyl-1-(1H-1,2,4-triazol-1-ylmethyl)cyclopentanol] | > 80 | > 80 | 60 to 80 | > 80 | > 80 | > 80 | > 80 | > 80 | 60 to 80 | > 80 | > 80 | > 80 | > 80 | > 80 | 
C[C@@]1(CCl)CC[C@@H](Cc2cccc(Cl)c2)[C@]1(O)Cn1cncn1 (relative stereo) [Compound I-174] |  |  |  |  |  |  |  |  |  |  |  |  |  |  | Growth inhibition grade, G.f (Giberella fujikuroi; plate medium, 5 mg/L): 5 (% Mycerial growth inhibition of 80% or higher); Growth inhibition grade, G.f (Giberella fujikuroi; plate medium, 50 mg/L): 5 (% Mycerial growth inhibition of 80% or higher); Growth inhibition grade, B.c (Botritis cinerea; plate medium, 5 mg/L): 5 (% Mycerial growth inhibition of 80% or higher); Growth inhibition grade, B.c (Botritis cinerea; plate medium, 50 mg/L): 5 (% Mycerial growth inhibition of 80% or higher); Growth inhibition grade, P.o (Pyricularia oryzae; plate medium, 5 mg/L): 5 (% Mycerial growth inhibition of 80% or higher); Growth inhibition grade, P.o (Pyricularia oryzae; plate medium, 50 mg/L): 5 (% Mycerial growth inhibition of 80% or higher); Growth inhibition grade, F.g (Fusarium graminearum; plate medium, 5 mg/L): 5 (% Mycerial growth inhibition of 80% or higher); Growth inhibition grade, F.g (Fusarium graminearum; plate medium, 50 mg/L): 5 (% Mycerial growth inhibition of 80% or higher); Growth inhibition grade, P.h ([1]; plate medium, 5 mg/L): 5 (% Mycerial growth inhibition of 80% or higher); Growth inhibition grade, P.h ([1]; plate medium, 50 mg/L): 5 (% Mycerial growth inhibition of 80% or higher); Growth inhibition grade, R.sec (Rhynchosporium secalis; plate medium, 5 mg/L): 5 (% Mycerial growth inhibition of 80% or higher); Growth inhibition grade, R.sec (Rhynchosporium secalis; plate medium, 50 mg/L): 5 (% Mycerial growth inhibition of 80% or higher); Growth inhibition grade, S.s (Sclerotinia sclerotiorum; plate medium, 5 mg/L): 5 (% Mycerial growth inhibition of 80% or higher); Growth inhibition grade, S.s (Sclerotinia sclerotiorum; plate medium, 50 mg/L): 5 (% Mycerial growth inhibition of 80% or higher)
